Columns and labels:
Experiment in all cases: relative viability (nuclei count vs DMSO), 5 days (fraction); higher = more cells survive
EHT 1864 + Luminespib = compound: C1COCCN1CC2=CC(=O)C(=CO2)OCCCCCSC3=C4C=CC(=CC4=NC=C3)C(F)(F)F [EHT 1864] + CCNC(=O)c1noc(-c2cc(C(C)C)c(O)cc2O)c1-c1ccc(CN2CCOCC2)cc1 [Luminespib] (partner 0.01 µM)
Method in brief: (§1)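 Dosing by pin tool came one day after lung cancer cell lines were seeded in 1536-well plates, using either one drug or a fixed anchor-drug dose plus five library-drug doses (not always all listed) in √10 steps. After 5 days, nuclei were counted on 4× images. Relative viability is treated-well nuclei count divided by vehicle-well nuclei count, and values are medians of duplicate plates.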

EHT 1864 + Tozasertib = compound: C1COCCN1CC2=CC(=O)C(=CO2)OCCCCCSC3=C4C=CC(=CC4=NC=C3)C(F)(F)F [EHT 1864] + Cc1cc(Nc2cc(N3CCN(C)CC3)nc(Sc3ccc(NC(=O)C4CC4)cc3)n2)n[nH]1 [Tozasertib] (partner 0.1 µM)
Method in brief: as §1

EHT 1864 + Alpelisib = compound: C1COCCN1CC2=CC(=O)C(=CO2)OCCCCCSC3=C4C=CC(=CC4=NC=C3)C(F)(F)F [EHT 1864] + Cc1nc(NC(=O)N2CCC[C@H]2C(N)=O)sc1-c1ccnc(C(C)(C)C(F)(F)F)c1 [Alpelisib] (partner 2 µM)
Method in brief: as §1

EHT 1864 + Dasatinib = compound: C1COCCN1CC2=CC(=O)C(=CO2)OCCCCCSC3=C4C=CC(=CC4=NC=C3)C(F)(F)F [EHT 1864] + Cc1nc(Nc2ncc(C(=O)Nc3c(C)cccc3Cl)s2)cc(N2CCN(CCO)CC2)n1 [Dasatinib] (partner 0.075 µM)
Method in brief: as §1

Cell Line | relative viability (EHT 1864 + Luminespib; first compound 0.04 µM) | relative viability (EHT 1864 + Luminespib; first compound 0.4 µM) | relative viability (EHT 1864 + Luminespib; first compound 4 µM) | relative viability (EHT 1864 + Tozasertib; first compound 0.04 µM) | relative viability (EHT 1864 + Tozasertib; first compound 0.4 µM) | relative viability (EHT 1864 + Tozasertib; first compound 4 µM) | relative viability (EHT 1864 + Alpelisib; first compound 0.1265 µM) | relative viability (EHT 1864 + Alpelisib; first compound 0.4 µM) | relative viability (EHT 1864 + Alpelisib; first compound 1.265 µM) | relative viability (EHT 1864 + Alpelisib; first compound 4 µM) | relative viability (EHT 1864 + Dasatinib; first compound 0.04 µM) | relative viability (EHT 1864 + Dasatinib; first compound 0.4 µM) | relative viability (EHT 1864 + Dasatinib; first compound 4 µM) | relative viability (EHT 1864 + Luminespib; first compound 1.265 µM) | relative viability (EHT 1864 + Tozasertib; first compound 1.265 µM) | relative viability (EHT 1864 + Alpelisib; first compound 0.04 µM) | relative viability (EHT 1864 + Dasatinib; first compound 1.265 µM) | relative viability (EHT 1864 + Luminespib; first compound 0.1265 µM) | relative viability (EHT 1864 + Tozasertib; first compound 0.1265 µM) | relative viability (EHT 1864 + Dasatinib; first compound 0.1265 µM)
NCI-H1793 | 0.143 | 0.141 | 0.178 | 0.294 | 0.341 | 0.285 | 0.635 | 0.815 | 0.847 | 0.7 | 0.307 | 0.304 | 0.419 |  |  |  |  |  |  | 
NCI-H1915 | 0.8 | 0.733 | 0.791 | 0.413 | 0.41 | 0.392 |  | 0.988 | 1.05 | 1.05 | 0.309 | 0.296 | 0.282 | 0.577 | 0.406 | 1.12 | 0.338 |  |  | 
NCI-H1944 | 0.827 | 0.74 | 0.802 | 0.283 | 0.277 | 0.292 |  | 0.805 | 0.803 | 0.984 | 0.238 | 0.208 | 0.21 | 0.712 | 0.234 | 0.828 | 0.228 |  |  | 
NCI-H1975 | 0.143 | 0.201 | 0.199 | 0.852 | 0.599 | 0.207 | 0.614 | 0.6 | 0.618 | 0.572 | 0.361 | 0.426 | 0.331 | 0.155 |  | 0.628 |  | 0.284 | 0.756 | 0.292
NCI-H1993 | 0.737 | 0.813 | 0.795 | 0.581 | 0.549 | 0.536 | 0.658 | 0.568 | 0.679 | 0.732 | 0.841 | 0.498 | 0.639 | 0.865 | 0.575 | 0.733 | 0.613 |  |  | 
NCI-H2009 | 1 | 0.979 | 0.789 | 0.736 | 0.765 | 0.476 | 1.13 | 1.11 | 1.12 | 0.971 | 0.259 | 0.323 | 0.251 | 0.913 | 0.532 | 1.16 | 0.241 | 0.926 | 0.648 | 0.258
NCI-H2023 | 0.585 | 0.704 | 0.68 | 0.281 | 0.29 | 0.207 | 0.597 | 0.564 | 0.694 | 0.546 | 0.568 | 0.508 | 0.577 | 0.634 | 0.248 | 0.513 | 0.517 | 0.723 | 0.294 | 0.628
NCI-H2085 | 0.432 | 0.541 | 0.442 | 0.8 | 0.791 | 0.576 | 0.875 | 0.9 | 0.982 | 0.869 | 0.22 | 0.233 | 0.305 | 0.415 | 0.641 | 0.998 | 0.253 |  |  | 0.239
NCI-H2087 | 0.175 | 0.143 | 0.135 | 0.373 | 0.291 | 0.202 | 1 | 0.902 | 1.1 | 0.802 | 0.851 | 0.758 | 0.825 | 0.168 | 0.241 | 0.929 | 0.846 |  |  | 
NCI-H2126 | 0.796 | 0.906 | 0.866 | 0.839 | 0.819 | 0.81 | 0.757 | 0.718 | 0.801 | 0.748 | 0.604 | 0.649 | 0.545 | 0.879 | 0.8 | 0.755 | 0.484 | 0.902 | 0.689 | 0.574
NCI-H2170 | 0.725 | 0.745 | 0.612 | 0.7 | 0.775 | 0.658 | 0.759 | 0.771 | 0.793 | 0.793 | 0.608 | 0.688 | 0.563 | 0.63 | 0.692 | 0.751 | 0.474 | 0.751 | 0.52 | 0.579
NCI-H2228 | 0.143 | 0.182 | 0.0861 | 0.335 | 0.209 | 0.16 | 0.813 | 0.732 | 0.594 | 0.713 | 0.485 | 0.418 | 0.496 | 0.193 | 0.204 | 0.776 | 0.448 | 0.145 | 0.332 | 0.456
NCI-H2347 | 0.859 | 0.401 | 0.745 | 0.606 | 0.501 | 0.562 | 0.868 | 0.989 | 1.03 | 1.2 | 0.358 | 0.308 | 0.332 |  |  | 1.02 |  | 0.47 | 0.446 | 0.251
NCI-H2405 | 0.745 | 0.703 | 0.603 | 0.8 | 0.847 | 0.726 | 0.767 | 0.877 |  | 0.719 | 0.205 | 0.241 | 0.234 | 0.581 | 0.633 | 0.789 | 0.227 | 0.667 | 0.678 | 0.196
NCI-H3122 | 0.102 | 0.089 | 0.102 | 0.358 | 0.398 | 0.392 | 0.751 | 0.774 | 0.732 | 0.766 | 0.809 | 0.667 | 0.885 | 0.101 | 0.398 | 0.869 | 0.817 | 0.0742 | 0.275 | 0.285
PC-3 [JPC-3] | 0.742 | 0.664 | 0.696 | 0.818 | 0.903 | 0.843 | 0.944 | 1.01 | 0.957 | 0.987 | 1.05 | 0.996 | 0.896 | 0.673 | 0.896 | 1.04 | 1.02 | 0.695 | 0.812 | 0.901
PC-14 | 0.121 | 0.199 | 0.143 | 0.607 | 0.555 | 0.53 | 0.888 | 0.952 | 0.901 | 0.846 | 0.257 | 0.279 | 0.195 | 0.196 | 0.623 | 0.916 | 0.26 |  |  | 0.276
